Experiments:
Assay type in all cases: in vivo
[1] = tested on: Adoxophyes orana fasciata; assay: Test Example 7: spray test on apple tree against Adoxophyes orana fasciata larvae; settings: in Malus domestica, 168 h, read-out: Death rate
Protocol: The formulations of Compounds of Present Invention 1-2 and 1-3 as obtained in Formulation Example 5 were diluted with water, so as to have a concentration of the active ingredient of 500 ppm, to prepare a test spray solution.
On the other hand, an apple tree was planted in a plastic cup, and grown until the seventh-eighth true leaf was spread. To the apple tree was sprayed, at a rate of 20 mL/cup, the test drug solution. After the drug solution was dried, 60 first-instar larvae of Adoxophyes orana fasciata were released, and covered with a plastic cup the bottom of which was cut off and on which a filter paper was put, with the plastic cup cover placed upside-down. After 7 days, the number of dead insects was counted, and the death rate was calculated according to the following equation. Death rate (%) = (Number of deads insects/Number of tested insects) × 100 [formula]

Culex pipiens pallens = assay: Test Example 10: larvicidal test in water against Culex pipiens pallens; settings: 24 h, active ingredient concentration 3.5 ppm in ion-exchanged water, last-instar larvae, one day later, read-out: Death rate
Protocol: The formulations of Compounds of Present Invention 1-2, 1-3 and 1-8 as obtained in Formulation Example 5 were diluted with water, so as to have a concentration of the active ingredient of 500 ppm, to prepare a test drug solution.
0.7 ml of the test drug solution was added to 100 ml of ion-exchanged water (active ingredient concentration: 3.5 ppm). 20 last-instar larvae of Culex pipiens pallens were released into the solution. One day later, the life and death of the Culex pipiens pallens was examined, and the number of dead insects was counted to calculate the death rate. Death rate (%) = (Number of deads insects/Number of tested insects) × 100 [formula]

Plutella xylostella = assay: Test Example 6: spray test on cabbage against Plutella xylostella larvae; settings: 120 h, sprayed 20 mL/cup on cabbage, second instar larvae, 5 days at 25°C, read-out: Death rate
Protocol: On the other hand, on cabbage at the third leaf stage planted in a polyethylene cup was sprayed, at a rate 20 mL/cup, the test drug solution. After the drug solution was dried, the foliage part was cut off, and then placed in a 50 mL volume cup. Five second instar larvae of Plutella xylostella were released into the cup, and the cup was sealed with a lid. After the cup was kept at 25°C for 5 days, the number of dead insects was counted. The death rate was calculated according to the following equation. Death rate (%) = (Number of deads insects/Number of tested insects) × 100 [formula]

Musca domestica = assay: Test Example 8: filter paper and sucrose bait test against Musca domestica; settings: 24 h, read-out: Death rate
Protocol: The formulation of Compound of Present Invention 1-2 as obtained in Formulation Example 5 was diluted with water, so as to have a concentration of the active ingredient of 500 ppm, to prepare a test drug solution.
A filter paper having a diameter of 5.5 cm was spread on the bottom of a polyethylene cup having the same diameter and 0.7 ml of the test drug solution was added dropwise onto the filter paper, and 30 mg of sucrose was uniformly placed as bait. Into the polyethylene cup, 10 female imagoes of Musca domestica were released, and the cup was sealed with a lid. After 24 hours, the life and death of Musca domestica was examined, the number of dead insects was counted, and the death rate was calculated according to the following equation. Death rate (%) = (Number of deads insects/Number of tested insects) × 100 [formula]

[2] = tested on: Haemaphysalis longicornis; assay: Test Example 11: coated screw tube contact test against Haemaphysalis longicornis ticks; settings: 48 h, 2 mg in 0.2 mL acetone coated on inner wall of screw tube, unfed nymphal ticks, after 2 days, read-out: Death rate
Protocol: Compound of Present Invention 1-24 (2 mg) was weighed in a screw tube (Maruemu No. 5; 27 x 55 mm), and 0.2 mL of acetone was added thereto, and the screw tube was sealed with a cap to dissolve the compound. The screw tube was rotated and inverted to uniformly coat the drug solution onto the whole inner wall of the tube. After removing the cap, the solution was air-dried for about 2 hours, then unfed nymphal ticks, Haemaphysalis longicornis (5 ticks/group) were released, and the tube was sealed with the cap. After 2 days, the number of dead insects was counted, and the death rate was calculated according to the following equation. Death rate (%) = 100 × (Number of deads insects/Number of tested insects) [formula]

SMILES | mortality at 500 ppm [1] [%] | mortality at 3.5 ppm (Culex pipiens pallens) [%] | mortality at 500 ppm (Plutella xylostella) [%] | mortality at 500 ppm (Musca domestica) [%] | mortality at 2 mg/tube [2] [%]
CCS(=O)(=O)c1cc(C(=O)OC)ccc1-c1nc2cc(C(F)(F)F)cnc2n1C [1-2] | ≥ 90 | ≥ 95 | ≥ 80 | 100 | 
CCOC(=O)c1ccc(-c2nc3cc(C(F)(F)F)cnc3n2C)c(S(=O)(=O)CC)c1 [1-3] | ≥ 90 | ≥ 95 | ≥ 80 |  | 
CCOC(=O)c1ccc(-c2nc3cc(C(F)(F)F)ccc3n2C)c(S(=O)(=O)CC)c1 [1-8] |  | ≥ 95 |  |  | 
CCOC(=O)c1ccc(-c2nc3cc(C(F)(F)F)ccc3s2)c(S(=O)(=O)CC)c1 [1-24] |  |  |  |  | 100
